# Experiments:
# Conditions in all cases: stereoisomer not certain
# [1] = RP, Waters CORTECS T3, 100 × 2.1 mm, 2.7 µm, 0.3 mL/min, estimated dead time 0.73 min; A: water + 0.1% formic acid, pH 3; B: methanol + 0.1% formic acid, pH 3; gradient (min/%B) 0/5 5/5 25/95 25.1/100 35/100 35.1/5 45/5
# [2] = RP, Waters CORTECS T3, 100 × 2.1 mm, 2.7 µm, 0.3 mL/min, estimated dead time 0.73 min; A: water + 0.1% formic acid, pH 3; B: methanol + 0.1% formic acid, pH 3; gradient (min/%B) 0/5 5/5 25/100 30/100 30.1/5 35/5
# [3] = RP, Waters CORTECS T3, 100 × 2.1 mm, 2.7 µm, 0.2 mL/min, estimated dead time 1.1 min; A: water + 0.045% formic acid + 0.11% ammonium hydroxide, pH 7; B: methanol; gradient (min/%B) 0/5 5/5 25/95 25.1/100 35/100 35.1/5 45/5
# [4] = RP, Waters CORTECS T3, 100 × 2.1 mm, 2.7 µm, 0.3 mL/min, estimated dead time 0.73 min; A: water + 0.1% formic acid, pH 3; B: methanol + 0.1% formic acid, pH 3; gradient (min/%B) 0/0 5/0 25/100 30/100 30.1/0 35/0
# [5] = RP, Waters ACQUITY UPLC BEH C18, 100 × 2.1 mm, 1.7 µm, 0.1 mL/min, estimated dead time 2.2 min; A: water + 0.045% formic acid + 0.11% ammonium hydroxide, pH 7; B: methanol; gradient (min/%B) 0/5 5/5 25/95 25.1/100 35/100 35.1/5 45/5
# [6] = RP, Waters ACQUITY UPLC BEH C18, 100 × 2.1 mm, 1.7 µm, 0.1 mL/min, estimated dead time 2.2 min; A: water + 0.1% formic acid, pH 3; B: methanol + 0.1% formic acid, pH 3; gradient (min/%B) 0/5 5/5 25/100 30/100 30.1/5 35/5
# [7] = RP, Waters ACQUITY UPLC BEH C18, 100 × 2.1 mm, 1.7 µm, 0.2 mL/min, estimated dead time 1.1 min; A: water + 0.025% formic acid + 20 mM ammonium acetate + 0.055% ammonium hydroxide, pH 7; B: methanol; gradient (min/%B) 0/5 5/5 25/100 30/100 30.1/5 35/5
# [8] = RP, Waters CORTECS T3, 100 × 2.1 mm, 2.7 µm, 0.1 mL/min, estimated dead time 2.2 min; A: water + 0.1% formic acid, pH 3; B: methanol + 0.1% formic acid, pH 3; gradient (min/%B) 0/0 1/0 6/5 30/100 35/100 35.1/0 40/0
# [9] = RP, Waters CORTECS T3, 100 × 2.1 mm, 2.7 µm, 0.3 mL/min, estimated dead time 0.73 min; A: water + 0.1% formic acid, pH 3; B: methanol + 0.1% formic acid, pH 3; gradient (min/%B) 0/0 1/0 6/5 30/100 35/100 35.1/0 40/0
# [10] = RP, Waters CORTECS T3, 100 × 2.1 mm, 2.7 µm, 0.1 mL/min, estimated dead time 2.2 min; A: water + 0.1% formic acid, pH 3; B: methanol + 0.1% formic acid, pH 3; gradient (min/%B) 0/5 5/5 25/95 25.1/100 35/100 35.1/5 45/5
# [11] = RP, Waters CORTECS T3, 100 × 2.1 mm, 2.7 µm, 0.25 mL/min, estimated dead time 0.88 min; A: water + 0.1% formic acid, pH 3; B: methanol + 0.1% formic acid, pH 3; gradient (min/%B) 0/5 5/5 25/95 25.1/100 35/100 35.1/5 45/5
# [12] = RP, Waters CORTECS T3, 100 × 2.1 mm, 2.7 µm, 0.25 mL/min, estimated dead time 0.88 min; A: water + 0.1% formic acid, pH 3; B: methanol + 0.1% formic acid, pH 3; gradient (min/%B) 0/0 1/0 6/5 30/100 35/100 35.1/0 40/0
# [13] = RP, Thermo Scientific Hypercarb, 150 × 2.1 mm, 5 µm, 0.1 mL/min, estimated dead time 3.3 min; A: water + 0.1% formic acid, pH 3; B: methanol + 0.1% formic acid, pH 3; gradient (min/%B) 0/5 5/5 20/100 35/100 35.1/5 45/5
# [14] = RP, Waters CORTECS T3, 100 × 2.1 mm, 2.7 µm, 0.15 mL/min, estimated dead time 1.5 min; A: water + 0.1% formic acid, pH 3; B: methanol + 0.1% formic acid, pH 3; gradient (min/%B) 0/0 1/0 6/5 30/100 35/100 35.1/0 40/0
# [15] = RP, Waters CORTECS T3, 100 × 2.1 mm, 2.7 µm, 0.2 mL/min, estimated dead time 1.1 min; A: water + 0.1% formic acid, pH 3; B: methanol + 0.1% formic acid, pH 3; gradient (min/%B) 0/0 1/0 6/5 30/100 35/100 35.1/0 40/0
# [16] = RP, Waters ACQUITY UPLC BEH C18, 100 × 2.1 mm, 1.7 µm, 0.2 mL/min, estimated dead time 1.1 min; A: water + 0.1% formic acid, pH 3; B: methanol + 0.1% formic acid, pH 3; gradient (min/%B) 0/5 5/5 25/100 30/100 30.1/5 35/5
# [17] = RP, Waters CORTECS T3, 100 × 2.1 mm, 2.7 µm, 0.2 mL/min, estimated dead time 1.1 min; A: water + 0.1% formic acid, pH 3; B: methanol + 0.1% formic acid, pH 3; gradient (min/%B) 0/0 1/0 6/5 30/100 35/100 35.1/0 40/0; remark: listed apart in the source
LC retention time [1],LC retention time [2],LC retention time [3],LC retention time [4],LC retention time [5],LC retention time [6],LC retention time [7],LC retention time [8],LC retention time [9],LC retention time [10],LC retention time [11],LC retention time [12],LC retention time [13],LC retention time [14],LC retention time [15],LC retention time [16],LC retention time [17],SMILES
25.6 min,24.6 min,26.2 min,24.8 min,30.2 min,29.3 min,26.3 min,26.2 min,29 min,,,,,,,,,CCCCCCCCC=CCCCCCCCC(=O)OCC(O)CO (racemic) [1-OLEOYL-RAC-GLYCEROL]
,,,,,,,,,2.8 min,,,,,,,,Nc1ccccc1O [2-AMINOPHENOL]
,,,,,,,,,,2.78 min,,,,,,,COc1cc(C(O)C(=O)O)ccc1O (stereo unspecified) [3-METHOXY-4-HYDROXYMANDELATE]
,,3.8 min,0.89 min,2.75 min,2.69 min,3.62 min,,,,,1.09 min,24.5 min,1.78 min,1.34 min,,,Cn1cnc(=N)c2[nH]cnc21 [3-METHYLADENINE]
8.59 min,8.56 min,,10 min,,13.3 min,,10.1 min,10.1 min,13.4 min,,10.8 min,30.8 min,12.9 min,11.5 min,,,O=C(O)Cc1c[nH]c2ccc(O)cc12 [5-HYDROXYINDOLEACETATE]
,,1.35 min,,,2.71 min,2.21 min,,0.9 min,,,1.06 min,16.9 min,,,,,Cc1cnc(=O)[nH]c1N [5-METHYLCYTOSINE]
,,,,,,,,,,1.08 min,,,,,,,O=C(O)C(O)C(O)C(O)C(O)COP(=O)(O)O (stereo unspecified) [6-PHOSPHOGLUCONIC ACID]
18.6 min,18.1 min,19.9 min,18.6 min,22.9 min,22.3 min,19.4 min,19.9 min,21.1 min,22.9 min,,21.6 min,,23.6 min,22.4 min,,,CC(=O)OCC(=O)C1(O)CCC2C3CCC4=CC(=O)CCC4(C)C3C(O)CC21C (stereo unspecified) [CORTISOL 21-ACETATE]
17.4 min,16.9 min,18.9 min,17.5 min,22.5 min,,,18.8 min,19.6 min,22.1 min,,,,22.4 min,21.1 min,,,CCOC(=O)Cc1c[nH]c2ccccc12 [ETHYL 3-INDOLEACETATE]
0.9 min,,,,,2.74 min,,,,,,1.09 min,14 min,1.78 min,,1.38 min,1.35 min,NC(CCSSCCC(N)C(=O)O)C(=O)O (stereo unspecified) [HOMOCYSTINE]
9.27 min,9.2 min,10.7 min,,13.7 min,13.6 min,10.6 min,10.6 min,10.8 min,13.8 min,,11.3 min,,13.3 min,12.1 min,,,O=CCc1c[nH]c2ccccc12 [INDOLE-3-ACETALDEHYDE]
12 min,11.8 min,,12.8 min,,17.3 min,,13.6 min,13.6 min,17.2 min,,14.4 min,,16.7 min,15.3 min,,,N[C@@H](Cc1ccccc1)C(=O)O [L-PHENYLALANINE]
,4.89 min,9.97 min,8.34 min,14.1 min,11.2 min,10.1 min,7.08 min,7.63 min,11.1 min,,8.41 min,,10.8 min,9.28 min,,,NC(=O)[C@@H](N)Cc1c[nH]c2ccccc12 [L-TRYPTOPHANAMIDE]
15.7 min,15.3 min,17.2 min,16 min,20.9 min,20.5 min,,17.2 min,17.6 min,20.5 min,,,,20.6 min,19.3 min,,,COC(=O)Cc1c[nH]c2ccccc12 [METHYL INDOLE-3-ACETATE]
,,20.3 min,,23.9 min,23.2 min,20 min,,,23.6 min,,,,24 min,,,,CCC=CCC1C(=O)CCC1CC(=O)OC (stereo unspecified) [METHYL JASMONATE]
,,1.35 min,,2.75 min,,1.8 min,,,,,,16.2 min,,,,,Cc1ncc(CO)c(CN)c1O [PYRIDOXAMINE]
,,,,,,,,,4.88 min,,,,,,,,CC=CC=CC(=O)O [SORBATE]
,,,0.91 min,,2.71 min,1.39 min,,0.9 min,,,1.06 min,,1.8 min,,1.36 min,,O=C(O)C=Cc1cnc[nH]1 [UROCANATE]

SMILES,LC retention time [1],LC retention time [2],LC retention time [3],LC retention time [4],LC retention time [5],LC retention time [6],LC retention time [7],LC retention time [8],LC retention time [9],LC retention time [10],LC retention time [11],LC retention time [12],LC retention time [13],LC retention time [14],LC retention time [15],LC retention time [16],LC retention time [17]
CCCCC(CC)COC(=O)c1ccccc1C(=O)OCC(CC)CCCC (stereo unspecified) [BIS(2-ETHYLHEXYL)PHTHALATE],26.4 min,25.4 min,26.7 min,25.5 min,30.8 min,30 min,,26.7 min,30 min,,,30.4 min,,32.3 min,,,

# From the RepoRT retention time repository (doi:10.1016/j.jchromb.2020.122105)
